US11370798B2 (Vertex Pharmaceuticals Incorporated, priority 2012, dated 2022)

Tested on: HCT116 colorectal cancer cells
Assay: Cisplatin sensitization assay (96 h cell viability MTS);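 also: Test-compound concentration that lowers the Cisplatin IC50 by a set fold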
Format: cell-based
Settings: compound and Cisplatin added simultaneously, Cisplatin sensitization value
Method in brief: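 Viability read by MTS (1 h at 37° C) after 96 h co-exposure at 37° C, 5% CO2. Test compound and cisplatin were dosed simultaneously in a full concentration matrix, each 2-fold serially diluted from 10 μM final; sensitization values binned in μM.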

Nc1nn2cc(F)cnc2c1C(=O)Nc1cnccc1-c1ccncc1 [I-C-24, N-([4,4′-bipyridin]-3-yl)-2-amino-6-fluoropyrazolo[1,5-a]pyrimidine-3-carboxamide]
Cisplatin Sensitization Assay: +++ (Cisplatin sensitization value of <0.02 μM)

Nc1nn2cc(F)cnc2c1C(=O)Nc1cncc(F)c1N1CCC(C(=O)N2CCN3CCC2C3)CC1 (centres unmarked) [I-G-46, N-(4-(4-(1,4-diazabicyclo[3.2.1]octane-4-carbonyl)piperidin-1-yl)-5-fluoropyridin-3-yl)-2-amino-6-fluoropyrazolo[1,5-a]pyrimidine-3-carboxamide]
Cisplatin Sensitization Assay: +++ (Cisplatin sensitization value of <0.02 μM)

Cc1cncc(NC(=O)c2c(N)nn3cc(F)cnc23)c1N1CCC(C(=O)N2CCNCC2)CC1 [I-G-56, 2-amino-6-fluoro-N-(5-methyl-4-(4-(piperazine-1-carbonyl)piperidin-1-yl)pyridin-3-yl)pyrazolo[1,5-a]pyrimidine-3-carboxamide]
Cisplatin Sensitization Assay: +++ (Cisplatin sensitization value of <0.02 μM)

Nc1nn2cc(F)cnc2c1C(=O)Nc1cncc(F)c1N1CCN(CC(=O)N2CCC2)CC1 [I-N-228, 2-amino-N-(4-(4-(2-(azetidin-1-yl)-2-oxoethyl)piperazin-1-yl)-5-fluoropyridin-3-yl)-6-fluoropyrazolo[1,5-a]pyrimidine-3-carboxamide]
Cisplatin Sensitization Assay: +++ (Cisplatin sensitization value of <0.02 μM)

CN1CCN(c2c(F)cncc2NC(=O)c2c(N)nn3cc(F)cnc23)CC1 [I-N-15, 2-amino-6-fluoro-N-(5-fluoro-4-(4-methylpiperazin-1-yl)pyridin-3-yl)pyrazolo[1,5-a]pyrimidine-3-carboxamide]
Cisplatin Sensitization Assay: +++ (Cisplatin sensitization value of <0.02 μM)

Cc1nonc1N1CCN(c2ccncc2NC(=O)c2c(N)nn3cc(F)cnc23)CC1 [I-N-260, 2-amino-6-fluoro-N-(4-(4-(4-methyl-1,2,5-oxadiazol-3-yl)piperazin-1-yl)pyridin-3-yl)pyrazolo[1,5-a]pyrimidine-3-carboxamide]
Cisplatin Sensitization Assay: +++ (Cisplatin sensitization value of <0.02 μM)

CN1CCC(C(=O)N2CCN(c3c(F)cncc3NC(=O)c3c(N)nn4cc(F)cnc34)CC2)CC1 [I-N-128, 2-amino-6-fluoro-N-(5-fluoro-4-(4-(1-methylpiperidine-4-carbonyl)piperazin-1-yl)pyridin-3-yl)pyrazolo[1,5-a]pyrimidine-3-carboxamide]
Cisplatin Sensitization Assay: +++ (Cisplatin sensitization value of <0.02 μM)

CN(C)CCOc1cc(C(F)(F)F)ncc1NC(=O)c1c(N)nn2cc(Cl)cnc12 [I-O-71, 2-amino-6-chloro-N-(4-(2-(dimethylamino)ethoxy)-6-(trifluoromethyl)pyridin-3-yl)pyrazolo[1,5-a]pyrimidine-3-carboxamide]
Cisplatin Sensitization Assay: + (Cisplatin sensitization value>0.2 μM but <5 μM)

Nc1nn2cc(F)cnc2c1C(=O)Nc1cnccc1N1CCC2(CCNC2)CC1 [I-N-255, N-(4-(2,8-diazaspiro[4.5]decan-8-yl)pyridin-3-yl)-2-amino-6-fluoropyrazolo[1,5-a]pyrimidine-3-carboxamide]
Cisplatin Sensitization Assay: ++ (Cisplatin sensitization value>0.02 μM but <0.2 μM)

CN1CC[C@H](Oc2ccncc2NC(=O)c2c(N)nn3cc(F)cnc23)C1 [I-O-1, (S)-2-amino-6-fluoro-N-(4-((1-methylpyrrolidin-3-yl)oxy)pyridin-3-yl)pyrazolo[1,5-a]pyrimidine-3-carboxamide]
Cisplatin Sensitization Assay: +++ (Cisplatin sensitization value of <0.02 μM)

Nc1nn2cc(F)cnc2c1C(=O)Nc1cncc(F)c1N1CCC(CN2CCCC2=O)CC1 [I-N-213, 2-amino-6-fluoro-N-(5-fluoro-4-(4-((2-oxopyrrolidin-1-yl)methyl)piperidin-1-yl)pyridin-3-yl)pyrazolo[1,5-a]pyrimidine-3-carboxamide]
Cisplatin Sensitization Assay: +++ (Cisplatin sensitization value of <0.02 μM)

CN1CCC[C@H]1C(=O)N1CCN(c2c(F)cncc2NC(=O)c2c(N)nn3cc(F)cnc23)CC1 [I-N-157, (S)-2-amino-6-fluoro-N-(5-fluoro-4-(4-(1-methylpyrrolidine-2-carbonyl)piperazin-1-yl)pyridin-3-yl)pyrazolo[1,5-a]pyrimidine-3-carboxamide]
Cisplatin Sensitization Assay: ++ (Cisplatin sensitization value>0.02 μM but <0.2 μM)

CC(C)(O)CN1CCN(c2c(F)cncc2NC(=O)c2c(N)nn3cc(F)cnc23)CC1 [I-N-139, 2-amino-6-fluoro-N-(5-fluoro-4-(4-(2-hydroxy-2-methylpropyl)piperazin-1-yl)pyridin-3-yl)pyrazolo[1,5-a]pyrimidine-3-carboxamide]
Cisplatin Sensitization Assay: +++ (Cisplatin sensitization value of <0.02 μM)

CN(C)CCOc1cc(Cl)ncc1NC(=O)c1c(N)nn2cc(Cl)cnc12 [I-O-68, 2-amino-6-chloro-N-(6-chloro-4-(2-(dimethylamino)ethoxy)pyridin-3-yl)pyrazolo[1,5-a]pyrimidine-3-carboxamide]
Cisplatin Sensitization Assay: ++ (Cisplatin sensitization value>0.02 μM but <0.2 μM)
